The target in assay [1] is T1, DNA topoisomerase 1 (Homo sapiens) (UniProt P11387).
T1 sequence (whole entry): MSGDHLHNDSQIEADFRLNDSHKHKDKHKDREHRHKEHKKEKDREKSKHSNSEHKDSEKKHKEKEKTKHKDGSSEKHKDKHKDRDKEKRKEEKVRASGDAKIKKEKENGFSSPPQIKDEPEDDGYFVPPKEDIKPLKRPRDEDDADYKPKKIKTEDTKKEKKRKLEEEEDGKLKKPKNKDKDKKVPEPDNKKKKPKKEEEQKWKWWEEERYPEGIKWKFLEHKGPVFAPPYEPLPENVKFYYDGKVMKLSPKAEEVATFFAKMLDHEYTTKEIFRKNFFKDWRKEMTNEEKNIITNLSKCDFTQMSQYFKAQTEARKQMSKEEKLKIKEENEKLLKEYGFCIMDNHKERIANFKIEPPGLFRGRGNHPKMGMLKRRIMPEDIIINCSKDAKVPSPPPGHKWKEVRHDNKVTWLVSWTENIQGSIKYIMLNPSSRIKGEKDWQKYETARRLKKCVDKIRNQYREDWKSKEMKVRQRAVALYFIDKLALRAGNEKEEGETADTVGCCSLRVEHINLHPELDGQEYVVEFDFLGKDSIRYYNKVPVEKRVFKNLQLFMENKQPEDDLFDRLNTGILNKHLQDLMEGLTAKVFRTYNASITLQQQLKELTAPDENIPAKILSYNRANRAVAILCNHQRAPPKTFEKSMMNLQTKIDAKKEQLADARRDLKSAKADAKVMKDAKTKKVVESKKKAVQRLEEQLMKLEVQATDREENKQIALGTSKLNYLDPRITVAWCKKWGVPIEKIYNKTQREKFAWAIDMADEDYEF
Description: Inhibition of recombinant Top1 (unknown origin) assessed as inhibition of relaxation of supercoiled pBR322 plasmid DNA at 100 uM incubated for 15 mins by ethidium bromide staining based agarose gel electrophoresis analysis.

The target in assay [2] is DNA topoisomerase 2-alpha (Homo sapiens) (UniProt P11388). Description: Inhibition of recombinant Top2 (unknown origin) assessed as inhibition of relaxation of supercoiled pBR322 plasmid DNA at 50 uM incubated for 15 mins by ethidium bromide staining based agarose gel electrophoresis analysis.
Chain of DNA topoisomerase 2-alpha (Homo sapiens) (P11388 whole entry): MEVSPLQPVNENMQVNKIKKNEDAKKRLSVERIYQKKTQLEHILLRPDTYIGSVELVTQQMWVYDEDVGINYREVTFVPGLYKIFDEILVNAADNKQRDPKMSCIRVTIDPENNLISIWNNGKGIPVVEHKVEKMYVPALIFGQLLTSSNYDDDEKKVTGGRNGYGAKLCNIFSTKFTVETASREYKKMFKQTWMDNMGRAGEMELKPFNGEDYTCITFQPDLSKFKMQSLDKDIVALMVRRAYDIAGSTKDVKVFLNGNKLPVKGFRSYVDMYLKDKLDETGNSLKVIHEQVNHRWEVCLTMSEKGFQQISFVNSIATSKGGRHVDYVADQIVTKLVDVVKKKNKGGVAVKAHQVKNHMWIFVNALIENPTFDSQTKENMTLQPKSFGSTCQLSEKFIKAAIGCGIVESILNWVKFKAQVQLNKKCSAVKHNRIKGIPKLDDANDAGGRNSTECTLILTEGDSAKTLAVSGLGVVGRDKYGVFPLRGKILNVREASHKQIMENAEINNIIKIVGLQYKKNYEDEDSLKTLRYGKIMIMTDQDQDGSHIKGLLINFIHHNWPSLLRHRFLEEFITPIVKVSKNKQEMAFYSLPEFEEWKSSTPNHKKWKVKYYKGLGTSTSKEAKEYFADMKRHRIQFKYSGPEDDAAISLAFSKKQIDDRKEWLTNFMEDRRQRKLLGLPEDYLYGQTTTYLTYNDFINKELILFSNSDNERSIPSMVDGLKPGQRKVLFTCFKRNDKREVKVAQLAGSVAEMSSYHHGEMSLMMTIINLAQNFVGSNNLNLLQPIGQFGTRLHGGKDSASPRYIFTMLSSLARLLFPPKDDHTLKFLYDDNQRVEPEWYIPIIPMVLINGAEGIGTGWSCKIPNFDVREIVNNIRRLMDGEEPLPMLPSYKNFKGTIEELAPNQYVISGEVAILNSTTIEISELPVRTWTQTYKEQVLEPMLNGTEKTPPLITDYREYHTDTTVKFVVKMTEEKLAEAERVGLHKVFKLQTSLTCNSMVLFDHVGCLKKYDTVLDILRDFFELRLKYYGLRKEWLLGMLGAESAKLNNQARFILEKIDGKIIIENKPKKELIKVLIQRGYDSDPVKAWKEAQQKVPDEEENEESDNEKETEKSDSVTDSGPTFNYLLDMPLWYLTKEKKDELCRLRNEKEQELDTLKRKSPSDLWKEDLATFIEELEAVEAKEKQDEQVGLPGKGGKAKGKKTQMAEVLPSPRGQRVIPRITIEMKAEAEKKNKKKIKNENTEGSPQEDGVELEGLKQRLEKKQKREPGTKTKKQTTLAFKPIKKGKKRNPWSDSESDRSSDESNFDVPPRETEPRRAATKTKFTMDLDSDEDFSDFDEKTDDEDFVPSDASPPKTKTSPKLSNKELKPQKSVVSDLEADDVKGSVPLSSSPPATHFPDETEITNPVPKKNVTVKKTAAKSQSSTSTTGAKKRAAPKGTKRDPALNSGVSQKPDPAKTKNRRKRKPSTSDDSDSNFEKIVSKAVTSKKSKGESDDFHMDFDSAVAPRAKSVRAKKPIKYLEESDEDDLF
In assay [3] the target is Histone deacetylase 1 (Homo sapiens, UniProt Q13547). The experiment in a line: Inhibition of full-length recombinant human HDAC1 expressed in Baculovirus expression system using Ac-Leu-Gly-Lys(Ac)-AMC as substrate preincubated for 5 mins followed by substrate addition and further incubated for 30 mins by fluorescence based microtiter plate reader assay.
Chain of Histone deacetylase 1 (Q13547 whole entry): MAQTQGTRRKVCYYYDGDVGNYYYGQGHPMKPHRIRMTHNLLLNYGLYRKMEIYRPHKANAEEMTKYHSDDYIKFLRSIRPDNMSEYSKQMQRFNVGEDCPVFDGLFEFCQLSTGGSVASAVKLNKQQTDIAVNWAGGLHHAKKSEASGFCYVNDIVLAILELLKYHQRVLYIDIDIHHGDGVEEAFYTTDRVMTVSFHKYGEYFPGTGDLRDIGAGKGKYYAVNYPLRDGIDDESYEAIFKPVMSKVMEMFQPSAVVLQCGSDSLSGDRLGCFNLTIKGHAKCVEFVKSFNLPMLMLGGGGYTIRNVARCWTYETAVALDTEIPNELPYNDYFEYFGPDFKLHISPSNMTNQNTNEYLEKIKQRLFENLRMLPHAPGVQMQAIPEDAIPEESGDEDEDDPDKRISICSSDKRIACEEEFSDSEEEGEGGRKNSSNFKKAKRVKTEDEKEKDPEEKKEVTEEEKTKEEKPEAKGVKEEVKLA
In assay [4] the test system is MCF7. The experiment in a line: Antiproliferative activity against human MCF7 cells assessed as cell growth inhibition incubated for 8 hrs by CCK8 assay. The class given is functional, cell-based. As to conditions: MCF7, 8 h.
The subject of assay [5] is A549. Description: Antiproliferative activity against human A549 cells assessed as cell growth inhibition incubated for 8 hrs by CCK8 assay. The class given is functional, cell-based. The conditions noted are these: A549, 8 h. For orientation: Tetrazolium assays rely on reduction of a dye to a coloured formazan, in cell work by metabolically active cells.
The subject of assay [6] is HCT-116. The experiment in a line: Antiproliferative activity against human HCT-116 cells assessed as cell growth inhibition incubated for 8 hrs by CCK8 assay. The class given is functional, cell-based. As to conditions: HCT-116, 8 h.
For assay [7], the system named is HepG2. The experiment in a line: Antiproliferative activity against human HepG2 cells assessed as cell growth inhibition incubated for 8 hrs by CCK8 assay. The class given is functional, cell-based. The conditions noted are these: HepG2, 8 h.
The subject of assay [8] is K562. The experiment in a line: Antiproliferative activity against human K562 cells assessed as cell growth inhibition incubated for 8 hrs by CCK8 assay. As to conditions: K562, 8 h. The class given is functional, cell-based.
Assay [9] has as its system HEL. Description: Antiproliferative activity against HEL cells assessed as cell growth inhibition incubated for 8 hrs by CCK8 assay. The conditions noted are these: Homo sapiens. The class given is functional, cell-based.
For assay [10], the target named is DNA topoisomerase 2-alpha (Homo sapiens) (UniProt P11388). Description: Inhibition of recombinant Top2 (unknown origin) assessed as inhibition of relaxation of supercoiled pBR322 plasmid DNA at 100 uM incubated for 15 mins by ethidium bromide staining based agarose gel electrophoresis analysis.

Calls of active or inactive are those of the source. No cut-off for these calls is given here.

As a reminder, the IC50 is the concentration that gives 50% inhibition. Consider `CN1c2ccc(F)cc2C(=O)N2CCc3c([nH]c4ccc(OCCCCCCC(=O)Nc5ccccc5N)cc34)C21` (stereo not drawn), for which the inhibition result in assay [1], in assay [2] and in assay [10] was “Active” in each case. Also, the IC50 in [3] was 25 nM; in assay [4], 830 nM; in [5] it was 810 nM; in assay [6], more than 2000 nM; in assay [7], 1260 nM; in assay [8], 1380 nM. Also, the IC50 in [9] is 1850 nM.

As to `CN1c2ccc(F)cc2C(=O)N2CCc3c([nH]c4ccc(OCc5ccccc5C(=O)NO)cc34)C21` (stereo not drawn), the inhibition result in assay [1], in assay [2] and in assay [10] was “Active” throughout. Further, the IC50 in assay [3] was determined as 6100 nM; in assay [4], 800 nM; in [5], 1210 nM; in assay [6], 150 nM; in [7], 120 nM; in [8] it was 86 nM. For the same molecule, the IC50 in assay [9] is 290 nM.

As to `CN1c2ccc(F)cc2C(=O)N2CCc3c([nH]c4ccc(OCCCCC(=O)NO)cc34)C21` (stereo not drawn), the inhibition result in assay [1] is “inactive”. Further, the inhibition entry in assay [2] and in [10] was “Active” each time. Moreover, the concentration for half-maximal inhibition (IC50) is 21 nM in assay [3]; 1560 nM in assay [4]; 330 nM in [5]; more than 2000 nM in assay [6]; 810 nM in assay [7]; 410 nM in assay [8]. The IC50 in [9] worked out at 580 nM.

Take `CN1c2ccc(F)cc2C(=O)N2CCc3c([nH]c4ccc(OCc5ccc(CC(=O)NO)cc5)cc34)C21` (stereo not drawn): the inhibition result in assay [1], in [2] and in assay [10] was “Active” in each case. For the same molecule, the IC50 was 360 nM in assay [3]; more than 2000 nM in [4]; more than 2000 nM in [5]; more than 2000 nM in [6]; 520 nM in assay [7]; 180 nM in assay [8]. Besides, the 50% inhibitory concentration (IC50) in assay [9] was determined as 100 nM.

For the molecule `CN1c2ccc(F)cc2C(=O)N2CCc3c([nH]c4ccc(OCCCCCC(=O)Nc5ccccc5N)cc34)C21` (stereo not drawn), in [1], the inhibition entry was “inactive”. The half-maximal inhibitory concentration (IC50) in [3] is 320 nM; in assay [4], more than 2000 nM; in [5], 720 nM; in assay [6], more than 2000 nM; in assay [7] it was more than 2000 nM; in assay [8] it was 1200 nM. The IC50 in [9] worked out at 1100 nM.

As to `CN1c2ccc(F)cc2C(=O)N2CCc3c([nH]c4ccc(OCc5cccc(C(=O)NO)c5)cc34)C21` (stereo not drawn), the inhibition result in assay [1], in assay [2] and in assay [10] was “Active” in each case. Further, the IC50 in assay [3] is 1900 nM; in assay [4], more than 2000 nM; in assay [5] it was more than 2000 nM; in [6] it was more than 2000 nM; in assay [7], 1620 nM; in assay [8], more than 2000 nM. Further, in assay [9], the concentration for half-maximal inhibition (IC50) worked out at 580 nM.

With `CN1c2ccc(F)cc2C(=O)N2CCc3c([nH]c4ccc(OCCCCCCCC(=O)NO)cc34)C21` (stereo not drawn), the inhibition result in assay [1] was “Active”. In addition, the concentration for half-maximal inhibition (IC50) was 150 nM in assay [3]; more than 2000 nM in assay [4]; 1580 nM in [5]; more than 2000 nM in assay [6]; more than 2000 nM in assay [7]; more than 2000 nM in assay [8]. Besides, the IC50 in [9] worked out at 1580 nM. Besides, the inhibition entry in [10] is “inactive”.

For `CN1c2ccc(F)cc2C(=O)N2CCc3c([nH]c4ccc(OCCCCCCC(=O)NO)cc34)C21` (stereo not drawn), the inhibition result in assay [1], in assay [2] and in [10] was “Active” throughout. Further, the half-maximal inhibitory concentration (IC50) in [3] was 3 nM; in assay [4], 210 nM; in assay [5], 630 nM; in [6], 830 nM; in assay [7], 200 nM; in [8], more than 2000 nM. The IC50 in [9] is more than 2000 nM.

`CN1c2ccc(F)cc2C(=O)N2CCc3c([nH]c4ccc(OCc5ccc(C(=O)Nc6ccccc6N)cc5)cc34)C21` (stereo not drawn): the inhibition result in [1] is “Active”. Besides, the half-inhibitory concentration (IC50) in [3] was 31 nM; in assay [4], 1910 nM; in assay [5], more than 2000 nM; in assay [6], more than 2000 nM; in assay [7], 125000 nM; in assay [8], 250 nM. Moreover, the half-inhibitory concentration (IC50) in [9] is 44 nM.

Regarding `CN1c2ccc(F)cc2C(=O)N2CCc3c([nH]c4ccc(OCCCC(=O)Nc5ccccc5N)cc34)C21` (stereo not drawn), the inhibition result in assay [1] was “inactive”. The IC50 amounted to 2200 nM in [3]; 52000 nM in [4]; 1250 nM in [5]; 1030 nM in [6]; 160 nM in assay [7]; 280 nM in [8]. In addition, the half-inhibitory concentration (IC50) in assay [9] is 350 nM.

As for `CN1c2ccc(F)cc2C(=O)N2CCc3c([nH]c4ccc(OCc5ccccc5C(=O)Nc5ccccc5N)cc34)C21` (stereo not drawn), the inhibition result in assay [1] was “inactive”. The 50% inhibitory concentration (IC50) is 1900 nM in assay [3]; 420 nM in assay [4]; 830 nM in assay [5]; 220 nM in assay [6]; 440 nM in assay [7]; 920 nM in [8]. The concentration for half-maximal inhibition (IC50) in assay [9] was 820 nM.

`CC[C@@]1(O)C(=O)OCc2c1cc1n(c2=O)Cc2cc3c(CN(C)C)c(O)ccc3nc2-1` [TOPOTECAN]: the half-inhibitory concentration (IC50) in assay [4] is 140 nM; in [5], 8300 nM; in assay [6] it was 970 nM; in [7], 3300 nM; in assay [8], 910 nM; in assay [9] it was 26000 nM.

Take `CN1c2ccc(F)cc2C(=O)N2CCc3c([nH]c4ccc(OCc5ccc(C(=O)NO)cc5)cc34)C21` (stereo not drawn): the inhibition result in assay [1] is “inactive”. The inhibition entry in assay [2] and in assay [10] was “Active” in each case. The half-inhibitory concentration (IC50) in [3] was 32 nM; in [4], 160 nM; in assay [5], more than 2000 nM; in assay [6] it was 500 nM; in [7], 98 nM; in assay [8], 250 nM. For the same molecule, the 50% inhibitory concentration (IC50) in assay [9] is more than 2000 nM.

Take `CN1c2ccc(F)cc2C(=O)N2CCc3c([nH]c4ccc(OCc5cccc(C(=O)Nc6ccccc6N)c5)cc34)C21` (stereo not drawn): in [1], the inhibition result was “inactive”. The half-inhibitory concentration (IC50) in assay [3] was 3600 nM; in assay [4] it was more than 2000 nM; in assay [5] it was 1320 nM; in assay [6], more than 2000 nM; in assay [7], 420 nM; in [8] it was 1380 nM. For the same molecule, the IC50 in [9] worked out at 660 nM.

Regarding `CN1c2ccc(F)cc2C(=O)N2CCc3c([nH]c4ccc(OCCCCC(=O)Nc5ccccc5N)cc34)C21` (stereo not drawn), the inhibition entry in assay [1] was “inactive”. In addition, the half-maximal inhibitory concentration (IC50) is 2100 nM in assay [3]; 1260 nM in [4]; 820 nM in [5]; 600 nM in assay [6]; 1250 nM in assay [7]; more than 2000 nM in assay [8]. In addition, in assay [9], the half-maximal inhibitory concentration (IC50) was 720 nM.

For the molecule `CN1c2ccc(F)cc2C(=O)N2CCc3c([nH]c4ccc(OCCCCCC(=O)NO)cc34)C21` (stereo not drawn), the inhibition result in assay [1] was “inactive”. Further, the inhibition entry in [2] and in [10] was “Active” in each case. For the same molecule, the IC50 in assay [3] turned out to be 4 nM; in assay [4], 150 nM; in assay [5] it was 300 nM; in assay [6], 120 nM; in assay [7], 210 nM; in assay [8], 670 nM. Also, the half-maximal inhibitory concentration (IC50) in [9] stood at 100 nM.

For `CN1c2ccc(F)cc2C(=O)N2CCc3c([nH]c4ccc(OCCCC(=O)NO)cc34)C21` (stereo not drawn), the inhibition result in assay [1], in [2] and in assay [10] was “Active” throughout. Further, the concentration for half-maximal inhibition (IC50) in assay [3] was 2200 nM; in assay [4], 1230 nM; in [5], more than 2000 nM; in assay [6], more than 2000 nM; in assay [7] it was more than 2000 nM; in assay [8], 550 nM. In [9], the concentration for half-maximal inhibition (IC50) is 270 nM.

Values taken from ChEMBL document CHEMBL5046291, “Evodiamine-Inspired Topoisomerase-Histone Deacetylase Dual Inhibitors: Novel Orally Active Antitumor Agents for Leukemia Therapy” (J Med Chem, 2022).
